Results from patent US20040220277A1, “Enantiomeric amphetamine compositions” (priority 2003, published 2004).

Columns and labels:
[1] = tested on: Rj: Wistar (Han) rats; assay: EEG sleep-wake cycle in conscious freely-moving rats; assay type: in vivo, rat
Description: They were supplied by Elevage Janvier, 53940 Le Genest-Saint-Isle, France.
Implanted animals were individually placed in transparent perspex boxes in a soundproof, light-controlled, ventilated cabin and were habituated to the recording environment for at least 10 days. Drug-free baseline EEG was recorded for 23 hours. Then the rats were administered vehicle and the EEG recorded for another 23 hours. The next day, rats were treated with one of the 4 amphetamine forms first at the dose of 3 mg/kg, than at the dose of 1 mg/kg. The following variables were measured: latency to the appearance of stable slow-wave sleep (SWS), latency to the first appearance of rapid-eye-movement sleep (REM), the number of REM sleep phases, and the distribution percentage of wake/SWS/REM (sleep architecture).
Test sessions following treatment were individually compared with corresponding control sessions. As no differences were apparent after vehicle, the 2 control sessions with and without vehicle, were averaged.

[2] = tested on: spontaneously hypertensive rat (SHR); assay: Behavioural study, multiple Random-Interval/Extinction operant schedule in the SHR model of ADHD; assay type: in vivo; conditions: for General activity level (total number of lever presses), overactivity / Impulsiveness (number of responses with short IRTs): d 0.5-1.5 mg/kg, l 1.0-3.0 mg/kg i.p.; for Sustained attention following transformation: transformed data, saline as baseline, FIG. 6
Description: (§1) Subjects: A total number of 32 male rats, 16 spontaneously hypertensive (SHR) and 16 Wistar/Kyoto (WKY), participated in final part of this study. (Initially, 8 extra rats, 6 SHRs and 2 controls, were trained with a view to select two groups of 16 with the greatest difference in baseline measures. However, there was little difference when comparing all the rats with a selected subgroup—they both separated well.) At the start of testing, the rats were ˜5 wk old and experimentally naive. Young rats were required, as ADHD primarily is a child and adolescent disorder. The SHRs were obtained from Charles River Italy (SHR/Cr1 Ico) and the WKYs from Charles River France (WKY/Nico) as other breeding centers were unable to deliver rats at the time we needed them. At the University of Oslo, the rats were housed individually in 41×25×25 (height) cm transparent cages and had free access to food (BK Standard RM 1 from Beekay Feeds Universal Ltd.).
(§2) The rats had access to water at all times during the habituation period. However, after completing the habituation period, the rats were deprived of water for 21 hr a day. The rats received water as reinforcers during the experimental session and had free access to water for 90 min after the experimental session. The temperature in the housing area was ˜20° C. The light in the housing area was on from 0700 to 1900 hours. The behavioral training took place between 0900 and 1230 hours seven days a week.
(§3) Behavioral apparatus: Sixteen Campden Instruments operant chambers were used in the study. The animal working space in eight of the chambers is 25×25×30 (height) cm and 25×25×20 (height) cm in the other eight chambers. The 2.8-W house light and a fan producing a low masking noise were on during the entire experimental session.
(§4) During training sessions, either one or two retractable levers were used. A 2.8-W cue light was located above each lever. The rats' response consisted of pressing one of the levers with a dead weight of at least 3 g to activate a microswitch. The reinforcers (0.01 ml tap water) were delivered by a liquid dipper located in a small recessed cubicle with a 2.8-W cue light lit when a reinforcer is presented. A 7×5 cm transparent plastic lid separated the cubicle from the rat's working space. The rat could easily open the lid with a light push with the nose or paw. Each chamber was ventilated and placed in a sound-resistant outer housing. A computer and an online system (SPIDER, Paul Fray, Ltd., UK) recorded the behavior and scheduled reinforcers (drops of water).
Before the initiation of the study, the rats were randomized and balanced into two groups. Each group of rats consisted of an equal number of SHRs and WKYs. Each rat was assigned to a specific chamber, which it occupied during all sessions. The rat was returned to its living cage after each session. All animals were run seven days a week.
Response acquisition: The training period started with a single 30-min habituation session. During the habituation session, the lid between the working space and the reinforcement cubicle was kept open. No lever was present and no cue light above any lever was lit. The house light was on. From this time on the rats were deprived of water for 21 hr a day; this is a moderate, but sufficient deprivation for motivating the animal.
The habituation session was followed by two 30-min magazine training sessions. The lid was taped open, no levers were present, and the house light was on, but the cue lights above the levers were not lit. The computer delivered water on the average every 10s independent of the rat's behavior (a variable-time schedule).
In the next two sessions, the rat was trained to open the lid to gain access to the water. The lid was not taped open, no levers were present and the lights above the levers were not activated. The house light was on. Each lid opening was followed by a presentation of a single drop of water. […]

[3] = tested on: Rats; assay: Weight gain, food and water intake in rats with 3 hours per day access; assay type: in vivo, rat; conditions: for Body weight gain: once a day dosing, measured every day; for Water intake: once a day, one hour before 3 h access to food and water; for Food intake: over the 3 hours of access each day, 10 day period
Description: Rats were given access to food and water for 3 hours per day. The acclimation period was 10 days. Thereafter, vehicle or doses of l- or d-amphetamine sulphate were administered to the rats once a day one hour before access to food and water. Body weight was measured every day (FIG. 11) before the drug administration and then food intake (FIG. 12) and water intake were measured over the 3 hours each day when the rats had access to the same.

[4] = tested on: Wistar Kyoto Rat (WKY); assay: Behavioural study, multiple Random-Interval/Extinction operant schedule in WKY controls; assay type: in vivo; conditions: single isomers; for General activity level: FIG. 3; for Impulsiveness: FIG. 4
Description: as §1, §2, §3, §4
Before the initiation of the study, the rats were randomized and balanced into two groups. Each group of rats consisted of an equal number of SHRs and WKYs. Each rat was assigned to a specific chamber, which it occupied during all sessions. […]

[5] = tested on: noradrenaline (NA) release, frontal cortex; assay: Basal release of tritiated noradrenaline from rat brain slices in vitro (Brandel system); assay type: cell-based
Description: The DA and NA release is measured in separate brain areas, i.e., in striatum for DA release (evaluating tritiated dopamine) and in the frontal cortex for NA release (evaluating tritiated noradrenaline), using a Brandel system. The brain slices are loaded with the tritiated monoamine (dopamine or noradrenaline) and then superfused to produce basal neurotransmitter release. The slices are also subjected to 2 short periods of electrical stimulation to effect stimulated transmitter release.

[6] = between 4 and 8 h after administration, 3 mg/kg

SMILES	REM sleep ([1]; between 4 and 8 h after administration, 1 mg/kg)	General activity level (total number of lever presses), overactivity ([2]; FIG. 3)	General activity level (total number of lever presses), overactivity ([2]; FIG. 3, listed as D-amphetamine)	Impulsiveness (number of responses with short IRTs) ([2]; FIG. 4)	Impulsiveness (number of responses with short IRTs) ([2]; FIG. 4, listed as D-amphetamine)	Sustained attention following transformation [2]	Body weight gain [3]	Water intake [3]	Food intake [3]	Delay to onset of REM sleep compared with the other dose ([1]; 3 mg/kg)	Effects on SWS and wake compared with the l-isomer ([1]; 3 mg/kg, first 4 h of recording)	SWS [1, 6]	Waking [1, 6]	Duration of effects on the sleep-wake cycle ([1]; rat, in vivo)	Overall potency on the sleep-wake cycle ([1]; rat, in vivo)	General activity level [4]	Impulsiveness [4]	Sustained attention, performance versus saline ([2]; 2 mg/kg, T-test with dependent samples, p <0.01)	Sustained attention (percentage of correct lever choices) ([2]; low doses, untransformed, FIG. 5)	Potency in releasing NA from cortex compared with DA from striatum [5]
CC(N)Cc1ccccc1.NC(CC(=O)O)C(=O)O (racemic) [dl-amphetamine aspartate]	reduced	–	–	–	–	–	–	–	–	–	–	–	–	–	–	–	–	–	–	–
C[C@H](N)Cc1ccccc1 [d-amphetamine]	–	reduced	more than l-amphetamine	reduced	more than l-amphetamine	disappeared	dose-related reductions	little effect	decreased food intake over the measured 10 day period	tended to be longer	significantly greater than the l-isomer	reduced	increased	longer lasting	more potent than l-amphetamine	unaffected	unaffected	–	–	–
C[C@@H](N)Cc1ccccc1 [l-amphetamine]	–	reduced	–	less efficient than d-amphetamine	–	significant improvement	dose-related reductions	little effect	decreased food intake over the first 1-2 days only	–	–	–	–	–	–	unaffected	unaffected	performed better	improved sustained attention more markedly than low doses of d-amphetamine	considerably more potent at releasing NA from cortex than DA from striatum
